Drawing on ChEMBL document CHEMBL5356966, “A dual mechanism with H2S inhibition and membrane damage of morusin from Morus alba Linn. against MDR-MRSA” (2024), this text covers MIC, inhibition and Activity for 4 molecules.

Assay [1] concerns Staphylococcus aureus. Kind of assay: Antibacterial activity Staphylococcus aureus assessed as inhibition of bacterial growth incubated for 24 hrs by CLSI based analysis. In kind it is functional.
The subject of assay [2] is Staphylococcus aureus. Nature of the assay: Antibacterial activity methicillin-resistant Staphylococcus aureus 011 assessed as inhibition of bacterial growth incubated for 24 hrs by CLSI based analysis. Type of assay: functional.
Another assay deals with Enterococcus. Kind of assay: Antibacterial activity vancomycin-resistant Enterococcus assessed as inhibition of bacterial growth incubated for 24 hrs by CLSI based analysis. Type of assay: functional.
Assay [3] has as its system Staphylococcus aureus. Kind of assay: Antibacterial activity methicillin-resistant Staphylococcus aureus 003 assessed as inhibition of bacterial growth incubated for 24 hrs by CLSI based analysis. Type of assay: functional.
A further assay concerns Acinetobacter baumannii. Kind of assay: Antibacterial activity Acinetobacter baumannii assessed as inhibition of bacterial growth incubated for 24 hrs by CLSI based analysis. In kind it is functional.
The test system of the next assay is Escherichia coli. Kind of assay: Antibacterial activity Escherichia coli assessed as inhibition of bacterial growth incubated for 24 hrs by CLSI based analysis. Type of assay: functional.
For assay [4], the system named is Staphylococcus aureus. Nature of the assay: Antibacterial activity methicillin-resistant Staphylococcus aureus 003 assessed as inhibition of H2S production at 50 uM. In kind it is functional.
The test system of assay [5] is Staphylococcus aureus. Kind of assay: Bactericidal activity against Staphylococcus aureus at 4 times MIC measured after 24 hrs by time kill assay. In kind it is functional, organism-based.
In assay [6] the test system is Staphylococcus aureus. Nature of the assay: In vivo antibacterial activity against methicilin-resistant Staphylococcus aureus infected in ICR mouse skin infection model assessed as wound area at 40 mg/kg, ip preadministered with compound for 24 hrs followed by bacterial infection and measured after 3 days. Type of assay: functional. Particulars: time 96 hrs.
Assay [7] relates to Staphylococcus aureus. Kind of assay: Bactericidal activity against methicilin-resistant Staphylococcus aureus 003 at 4 times MIC measured after 24 hrs by time kill assay. Type of assay: functional, organism-based.

Structures are written as SMILES. Values after ≈ are worked out from the molar mass of the structure shown. Active and inactive are the calls of the source. The calls are words filed in the database; no cut-off is given here.

`COc1cccc(OC)c1C(=O)N[C@@H]1C(=O)N2[C@@H]1SC(C)(C)[C@@H]2C(=O)[O-].[Na+]`: the MIC in the assay with Staphylococcus aureus [1] was 1 µg/mL; in the assay on Staphylococcus aureus [2], above 128 µg/mL; in the assay with Enterococcus, 32 µg/mL; in the assay on Staphylococcus aureus [3] it was above 128 µg/mL.
Regarding `CC(C)CCCCC(=O)N[C@@H](CCN)C(=O)N[C@H](C(=O)N[C@@H](CCN)C(=O)N[C@H]1CCNC(=O)[C@H]([C@@H](C)O)NC(=O)[C@H](CCN)NC(=O)[C@H](CCN)NC(=O)[C@H](CC(C)C)NC(=O)[C@@H](Cc2ccccc2)NC(=O)[C@@H](CCN)NC1=O)[C@@H](C)O.O=S(=O)(O)O`, the MIC in the assay on Staphylococcus aureus [1] turned out to be 8 µg/mL; in the assay on Acinetobacter baumannii, 1 µg/mL; with Staphylococcus aureus [2], 16 µg/mL; with Enterococcus, 128 µg/mL; with Staphylococcus aureus [3], 16 µg/mL; in the assay with Escherichia coli, 0.25 µg/mL.
With `NOCC(=O)O` [CARBOXYMETHOXYLAMINE], the inhibition at 50 µM with Staphylococcus aureus [4] amounted to 30%.
As for `CO[C@@]1(NC(=O)Cc2cccs2)C(=O)N2C(C(=O)O)=C(COC(N)=O)CS[C@@H]21` [CEFOXITIN], the MIC with Staphylococcus aureus [1] was 2 µg/mL (≈ 4.68 µM); in the assay on Staphylococcus aureus [2], above 128 µg/mL; in the assay with Enterococcus, above 128 µg/mL; in the assay with Staphylococcus aureus [3], above 128 µg/mL. For the same molecule, the outcome in the assay on Staphylococcus aureus [5] and in the assay with Staphylococcus aureus [7] was inactive. For the same molecule, the Activity with Staphylococcus aureus [6] turned out to be 0.28 cm2.
